The values below come from ChEMBL document CHEMBL1201862, “PubChem BioAssay data set” (2004).

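The compound was tested at five concentrations on cells cultured in 96-well plates, with a 48-hour exposure period. The concentration for 50% growth inhibition is given as GI50.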 Calls of active or inactive are those of the source. Cut-off read from the data, not from the text of the source: active = GI50 up to about 1.1 µM and inactive = higher.

Test systems include DMS-114; DLD-1; SNB-78; LXFL 529; KM-20L2; RXF 631; HOP-18; DMS-273; XF498.
Assay in all cases: NCI-60 cell line screen, 48 h

As for `Cc1nc(-n2nc(-c3ccccc3)cc2-c2ccccc2)sc1C(/C=C/c1ccc([N+](=O)[O-])cc1)=N/NC(N)=S`, the GI50 in the assay with DMS-114 is 16.9 µM (inactive); with DLD-1 it was 43 µM (inactive); with SNB-78, 18.7 µM (inactive); with LXFL 529, 24.1 µM (inactive); in the assay on KM-20L2, 40.5 µM (inactive).

Take `O=CN/C=C/c1ccccc1`: the GI50 in the assay on RXF 631, with DLD-1, in the assay with SNB-78, in the assay with HOP-18, with LXFL 529 and in the assay with KM-20L2 was > 100 µM (inactive) throughout. Moreover, the GI50 in the assay on DMS-273 was > 100 µM (inactive).

As for `O=C(CC1(O)C(=O)Nc2ccccc21)c1ccc(O)cc1` (stereo not given), the GI50 in the assay with RXF 631, in the assay with DMS-114, in the assay with DLD-1, in the assay with SNB-78, with HOP-18 and in the assay on LXFL 529 was > 100 µM (inactive) throughout. The GI50 in the assay on KM-20L2 and in the assay with DMS-273 was > 100 µM (inactive) in each case.

Regarding `O=C(CC(=O)N1N=C(c2ccccc2)C(/N=N/c2ccc(C(=O)O)cc2)C1=O)Nc1ccc(F)cc1` (stereo not given), the GI50 is 36.4 µM (inactive) in the assay on RXF 631; 34.5 µM (inactive) in the assay with DMS-114; 20.9 µM (inactive) with DLD-1; 42.8 µM (inactive) in the assay on SNB-78; 20.4 µM (inactive) in the assay with XF498; 23.5 µM (inactive) with LXFL 529. Moreover, the GI50 was 46.5 µM (inactive) in the assay with KM-20L2 and 27.2 µM (inactive) in the assay with DMS-273.

For the compound `CN(/N=C\c1ccnc2ccccc12)c1ccc([N+](=O)[O-])cc1`, the GI50 in the assay on RXF 631 is > 100 µM (inactive); in the assay with SNB-78, > 100 µM (inactive); in the assay with XF498, > 100 µM (inactive); in the assay on LXFL 529 it was 54.8 µM (inactive); with KM-20L2, > 100 µM (inactive); in the assay with DMS-273 it was 42.5 µM (inactive).

On to `CN1c2ccccc2NC(CC(=O)O)C2CC=CN21` (stereo not given), for which the GI50 in the assay on RXF 631 was > 100 µM (inactive); in the assay on DMS-114, > 100 µM (inactive); in the assay with XF498, > 100 µM (inactive); in the assay on HOP-18, 0.117 µM (active); in the assay on LXFL 529 it was > 100 µM (inactive); in the assay with KM-20L2, > 100 µM (inactive). In the assay on DMS-273, the GI50 is > 100 µM (inactive).

In the case of `CCOC(=O)C(C)N1C(=O)c2ccccc2S1(=O)=O` (stereo not given), the GI50 with DMS-114, in the assay on DLD-1, with XF498, in the assay on HOP-18 and in the assay with DMS-273 was > 100 µM (inactive) in each case.

Turning to `O=C(CCCCCCCCCCc1ccccc1)C1=C(O)CCCC1=O`, the GI50 is 18.6 µM (inactive) with DMS-114; 41.1 µM (inactive) in the assay with DLD-1; 52.4 µM (inactive) in the assay with SNB-78; 42.5 µM (inactive) in the assay with XF498; 38.6 µM (inactive) in the assay with HOP-18; 32.2 µM (inactive) with LXFL 529. In addition, the figures for the GI50 in the assay with KM-20L2 and in the assay on DMS-273 were 32.4 µM (inactive) and 20.5 µM (inactive), respectively.

With `CC1=NN(C(=O)c2ccc([N+](=O)[O-])cc2)C(=O)C1/N=N/c1ccccc1C(=O)O` (stereo not given), the GI50 in the assay on DMS-114, in the assay with DLD-1, in the assay on SNB-78, in the assay with LXFL 529 and with DMS-273 was > 100 µM (inactive) throughout.

With `COc1ccc(C(O)C(c2ccc(OCc3ccccc3)cc2)c2ccc(OCc3ccccc3)cc2)cc1` (stereo not given), the GI50 with DMS-114, in the assay with DLD-1, in the assay on SNB-78, with XF498, in the assay with LXFL 529 and in the assay with KM-20L2 was > 100 µM (inactive) in each case. For the same compound, the GI50 with DMS-273 was > 100 µM (inactive).

Turning to `O=C(CCCC(=O)Nc1ccc(Cl)cc1Cl)CC(=O)c1ccc2ccccc2c1`, the GI50 with RXF 631, in the assay with DMS-114, in the assay on DLD-1, in the assay with SNB-78, in the assay with HOP-18 and in the assay on LXFL 529 was > 100 µM (inactive) in each case. Also, the GI50 in the assay with KM-20L2 and with DMS-273 was > 100 µM (inactive) throughout.

`[N-]=[N+]=Nc1ccccc1-[n+]1noc([O-])c1Br`: the GI50 in the assay with DMS-114, in the assay with DLD-1, with HOP-18, in the assay on LXFL 529 and with KM-20L2 was > 100 µM (inactive) throughout.

As to `Cc1cccc(/C=N/N=C(\N)NO)n1`, the GI50 in the assay on RXF 631 was > 100 µM (inactive); in the assay with DMS-114, 12.1 µM (inactive); with DLD-1, 18.7 µM (inactive); with SNB-78, > 100 µM (inactive); in the assay on XF498 it was 39.4 µM (inactive); in the assay on LXFL 529, 6.52 µM (inactive). In the assay with DMS-273, the GI50 is 35.7 µM (inactive).

Regarding `C/C=C1/CCC2c3[nH]c4ccccc4c3CCN2C1` (stereo not given), the GI50 was 93.8 µM (inactive) in the assay with DMS-114; > 100 µM (inactive) in the assay with DLD-1; > 100 µM (inactive) in the assay on SNB-78; 55.6 µM (inactive) with XF498; > 100 µM (inactive) in the assay on LXFL 529; 97.1 µM (inactive) in the assay on KM-20L2. In addition, the GI50 in the assay with DMS-273 is > 100 µM (inactive).

`Cc1cccc(C(C)(C)C)c1NC(=O)CC1C(=O)Nc2ccccc2[S+]1[O-]` (stereo not given): the GI50 was 70.3 µM (inactive) in the assay on RXF 631; 44.9 µM (inactive) in the assay on DLD-1; 54.6 µM (inactive) in the assay with SNB-78; 68.9 µM (inactive) in the assay with XF498; 37.8 µM (inactive) with LXFL 529; 57.5 µM (inactive) in the assay on KM-20L2. In addition, the GI50 in the assay on DMS-273 was 38.1 µM (inactive).

Turning to `CN(O)C(=S)c1ccccc1`, the GI50 with RXF 631 is 1.48 µM (inactive); with DMS-114, 1.18 µM (inactive); with DLD-1, 0.619 µM (active); with SNB-78, 6.43 µM (inactive); in the assay on HOP-18, > 100 µM (inactive); in the assay with LXFL 529 it was 0.379 µM (active). Besides, the GI50 in the assay on KM-20L2 is 3.24 µM (inactive); in the assay with DMS-273, 0.893 µM (active).

Take `CCC(C)CN1C(=O)NC(C)(Cc2ccccc2)C1=O` (stereo not given): the GI50 in the assay on DMS-114, in the assay on DLD-1, in the assay on SNB-78, with XF498, in the assay with HOP-18 and in the assay with LXFL 529 was > 100 µM (inactive) each time. The GI50 with KM-20L2 and in the assay with DMS-273 was > 100 µM (inactive) throughout.

`N=C(c1ccccc1)N(O)C1CCCCC1`: the GI50 in the assay on DMS-114, in the assay on DLD-1, with SNB-78, in the assay on HOP-18, with LXFL 529 and in the assay with KM-20L2 was > 100 µM (inactive) each time. In addition, the GI50 in the assay on DMS-273 is > 100 µM (inactive).

For `O=c1nc(-c2ccccc2)c2c3c(cccn13)CCC2`, the GI50 with DMS-114, with DLD-1, in the assay with SNB-78, in the assay with XF498, in the assay with LXFL 529 and with DMS-273 was > 100 µM (inactive) in each case.

Turning to `Cc1cc(-c2ccccc2)nc(Nc2cc3ccccc3[nH]2)n1`, the GI50 in the assay with DMS-114, with DLD-1, in the assay with SNB-78, in the assay on XF498, with LXFL 529 and in the assay on KM-20L2 was > 100 µM (inactive) in each case.

Take `O=C(O/N=C1/CCC/C1=C\c1ccccc1)c1ccc(Cl)cc1`: the GI50 was 23.9 µM (inactive) in the assay on DLD-1; 32.8 µM (inactive) in the assay on SNB-78; 61.5 µM (inactive) in the assay on XF498; > 100 µM (inactive) in the assay with HOP-18; 47.4 µM (inactive) in the assay with LXFL 529; > 100 µM (inactive) in the assay with KM-20L2. The GI50 in the assay with DMS-273 was > 76.9 µM (inactive).

Turning to `Nc1ccccc1/C(O)=C1/CCOC1=O`, the GI50 in the assay with DMS-114, in the assay on DLD-1, in the assay with SNB-78, in the assay with XF498 and in the assay with LXFL 529 was > 100 µM (inactive) in each case.

Turning to `COc1cc(C(C)O)c[n+](Cc2ccccc2)c1` (stereo not given), the GI50 in the assay on RXF 631 is > 100 µM (inactive); in the assay on DMS-114, > 100 µM (inactive); in the assay on DLD-1, > 100 µM (inactive); in the assay on SNB-78 it was > 100 µM (inactive); with XF498, > 31.6 µM (inactive); in the assay with HOP-18 it was > 100 µM (inactive). Further, the GI50 in the assay with LXFL 529, in the assay with KM-20L2 and with DMS-273 was > 100 µM (inactive) in each case.

For `CCCCCCCC/C=C\CCCCCCCCCCCC(=O)O` [ERUCIC ACID], the GI50 in the assay on DLD-1 was 42.4 µM (inactive); with SNB-78, 44.4 µM (inactive); in the assay with XF498, 1.48 µM (inactive); in the assay with HOP-18 it was 46.2 µM (inactive); with KM-20L2 it was 38.3 µM (inactive); with DMS-273, 22.2 µM (inactive).

Consider `O=[N+]([O-])C=C1c2ccccc2-c2ccccc21`, for which the GI50 is 2.84 µM (inactive) in the assay on DLD-1, 17.4 µM (inactive) in the assay with SNB-78, 14.9 µM (inactive) with LXFL 529 and 19.1 µM (inactive) in the assay on KM-20L2.

In the case of `O=[N+]([O-])c1nccn1COCCO`, the GI50 was > 100 µM (inactive) in the assay on RXF 631; > 100 µM (inactive) in the assay with DMS-114; > 100 µM (inactive) in the assay with DLD-1; > 100 µM (inactive) in the assay with SNB-78; > 100 µM (inactive) with XF498; 28.1 µM (inactive) with HOP-18. Also, the GI50 with LXFL 529, in the assay on KM-20L2 and with DMS-273 was > 100 µM (inactive) throughout.
